Data set [1] addresses CDK12/CyclinK (Homo sapiens (Human), UniProt Q9NYV4). As to the kind of experiment: CDK12/cyclinK enzyme activity. The format is biochemical. As to conditions: in vitro.
Data set [2] concerns HCC1954 cells. The data set is described as follows: Breast cancer growth inhibitory activity (Cell-titer Glo, 72 h). It is filed as cell-based. As to conditions: Homo sapiens. Here is the method:
(§1) Breast cancer cells in a culture solution (100 μL volume/well, 2,500 SK-Br3 cells/well, 1,000 HCC-1954 cells/well) were seeded into a tissue culture-treated 96-well plate and cultured in a cell incubator for 24 hours. […] Cell-titer Glo™ reagent (50 μL of a 5-fold diluted solution, Promega) was added to each well, and luminescence signals were measured using an Envision™ plate reader (PerkinElmer, USA). Titration curve fitting and IC50 values were generated using Prism 7.0 s/w (GraphPad, San Diego, USA).

Data set [3] relates to SK-Br3 cells. The description is as above. As to conditions: Homo sapiens, SK-BR-3. It is filed as cell-based. The protocol: as §1
Data set [4] is described as follows: Liver microsomal metabolic stability. The format is in vitro ADME. As to conditions: for Liver microsomal metabolic stability (% remaining amount) Dog: dog liver microsomes; for Liver microsomal metabolic stability (% remaining amount) Human: human liver microsomes; for Liver microsomal metabolic stability (% remaining amount) Mouse: mouse liver microsomes. Here is the method:
(§2) 5 derivatives were evaluated for in vitro metabolic stability in liver microsomes from three different species (human, dog, mouse) and for inhibitory activity against 5 representative cytochrome P450 enzymes (CYPs)(Table 3). In terms of liver microsomal stability, the 2′-pyridyl group is more suitable than the α-methyl-4′-pyridyl group as the terminal aromatic group at position 6, and the aminopyrimidyl group is better than the aminopyridyl group as a substituent at position 2.

Data set [5] has as its target CYP1A2 (Homo sapiens (Human), UniProt P05177). The data set is described as follows: in vitro. It is filed as in vitro ADME. Here is the method:
as §2

The target of data set [6] is CYP2C19 (Homo sapiens (Human), UniProt P33261). The data set is described as follows: CYP inhibitory activity. The format is in vitro ADME. As to conditions: read-out: CYP % activity at 10 μM concentration 2C19. The protocol: as §2
For data set [7], the target named is CYP2C9 (Homo sapiens (Human), UniProt P11712). The data set is described as follows: CYP inhibitory activity. As to conditions: read-out: CYP % activity at 10 μM concentration 2C9. It is filed as in vitro ADME. Here is the method: as §2
Data set [8] addresses CYP2D6 (Homo sapiens (Human), UniProt P10635). As to the kind of experiment: CYP inhibitory activity. The format is in vitro ADME. As to conditions: read-out: CYP % activity at 10 μM concentration 2D6. The protocol:
as §2

Data set [9] deals with CYP3A4 (Homo sapiens (Human), UniProt P08684). As to the kind of experiment: CYP inhibitory activity. It is filed as in vitro ADME. As to conditions: read-out: CYP % activity at 10 μM concentration 3A4. Here is the method:
as §2

In data set [10] the test system is Pol II CTD (Ser2) phosphorylation. As to the kind of experiment: Western blot, Pol II CTD Ser2 phosphorylation. The format is cell-based. As to conditions: SK-Br3 and HCC1954 cell lines, 40 and 200 nM, 2 hours. (In general: In western blotting, separated proteins are transferred to a membrane and probed.)
Data set [11] deals with cyclinK. As to the kind of experiment: Western blot, cyclinK degradation. As to conditions: SK-Br3 and HCC1954 cell lines, 40 and 200 nM, 2 hours. It is filed as cell-based.
Data set [12] relates to IRS1 and WNT1. As to the kind of experiment: Western blot, CDK12 downstream gene expression. The format is cell-based. As to conditions: SK-Br3 and HCC1954 cell lines, 40 and 200 nM, 24 hours.
A short description of data set [13]: Body weight in SK-Br3 xenograft model. The format is in vivo, mouse. As to conditions: 20 mg/kg, i.p. twice a week. The protocol: A mouse efficacy experiment was conducted after obtaining approval from the Laboratory Animal Ethics Committee of GenNBio (Review No.: GN-IACUC-Research 22-02-07). SK-Br3 and HCC-1954 cells (1×10^6 cells each) mixed with Matrigel (BD Biosciences) were […] injected into 5-week-old female Balb/c nude mice (Orient Bio, Seongnam, Republic of Korea). After tumors reached a size of about 100 mm^3, the compound, trastuzumab (20 mg/kg), and the like were intraperitoneally injected into mice (n=8 per group)(vehicle: 8% DMSO, 4% Tween-80, 88% PBS). The tumor size was measured twice weekly for about 4 weeks and calculated as follows. Volume (mm^3)=(a×b^2)/2; “a”, maximum diameter; “b”, vertical diameter

SMILES strings stand for the structures. Where two headings read alike, the source gives them in different places.

The values below come from patent publication US20250101023A1, “HETEROARYL DERIVATIVE AND USES THEREOF” (IUCF-HYU (INDUSTRY-UNIVERSITY COOPERATION FOUNDATION …, priority 2022, published 2025).

Sequence of CYP2C9 (P11712 whole entry): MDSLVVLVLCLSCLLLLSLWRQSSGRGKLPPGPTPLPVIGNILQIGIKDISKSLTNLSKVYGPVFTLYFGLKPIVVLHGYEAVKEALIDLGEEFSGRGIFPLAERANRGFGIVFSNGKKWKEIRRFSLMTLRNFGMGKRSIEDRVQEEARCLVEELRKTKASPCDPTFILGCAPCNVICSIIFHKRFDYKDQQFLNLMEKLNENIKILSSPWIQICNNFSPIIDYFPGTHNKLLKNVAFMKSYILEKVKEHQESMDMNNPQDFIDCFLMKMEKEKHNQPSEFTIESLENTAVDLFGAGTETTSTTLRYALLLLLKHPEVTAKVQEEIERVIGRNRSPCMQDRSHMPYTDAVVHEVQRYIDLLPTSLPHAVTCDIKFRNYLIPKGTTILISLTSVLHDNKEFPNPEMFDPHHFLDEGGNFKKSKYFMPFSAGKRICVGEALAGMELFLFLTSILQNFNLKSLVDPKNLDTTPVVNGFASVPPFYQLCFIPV
Sequence of CYP2C19 (P33261 whole entry): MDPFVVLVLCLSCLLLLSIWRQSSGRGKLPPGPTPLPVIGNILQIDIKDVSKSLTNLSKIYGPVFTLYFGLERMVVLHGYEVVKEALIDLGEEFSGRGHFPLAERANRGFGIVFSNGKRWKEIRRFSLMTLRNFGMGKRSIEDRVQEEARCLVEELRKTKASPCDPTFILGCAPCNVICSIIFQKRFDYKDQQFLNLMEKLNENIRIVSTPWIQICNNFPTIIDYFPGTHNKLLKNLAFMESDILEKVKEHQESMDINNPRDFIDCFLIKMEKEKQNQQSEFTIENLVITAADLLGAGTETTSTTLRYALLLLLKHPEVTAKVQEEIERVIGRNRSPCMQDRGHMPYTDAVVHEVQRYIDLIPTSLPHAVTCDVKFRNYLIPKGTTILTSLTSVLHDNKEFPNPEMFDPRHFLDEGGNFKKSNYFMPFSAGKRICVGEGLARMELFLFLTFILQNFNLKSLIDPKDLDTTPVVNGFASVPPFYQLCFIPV
Sequence of CYP3A4 (P08684 whole entry): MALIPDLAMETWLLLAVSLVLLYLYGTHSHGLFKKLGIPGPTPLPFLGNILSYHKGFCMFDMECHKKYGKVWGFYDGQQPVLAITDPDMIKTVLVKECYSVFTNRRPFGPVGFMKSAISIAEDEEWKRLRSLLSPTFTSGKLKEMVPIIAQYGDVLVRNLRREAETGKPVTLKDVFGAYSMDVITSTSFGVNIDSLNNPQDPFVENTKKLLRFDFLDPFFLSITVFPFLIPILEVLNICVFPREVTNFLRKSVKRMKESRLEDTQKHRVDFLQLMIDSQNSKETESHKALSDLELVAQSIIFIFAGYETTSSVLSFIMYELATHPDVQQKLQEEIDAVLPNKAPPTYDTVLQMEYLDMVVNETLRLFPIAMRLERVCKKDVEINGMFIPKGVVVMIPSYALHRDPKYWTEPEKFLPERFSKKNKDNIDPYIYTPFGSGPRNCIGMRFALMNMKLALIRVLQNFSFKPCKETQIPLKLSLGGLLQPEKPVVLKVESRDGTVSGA
Sequence of CDK12/CyclinK (Q9NYV4 whole entry): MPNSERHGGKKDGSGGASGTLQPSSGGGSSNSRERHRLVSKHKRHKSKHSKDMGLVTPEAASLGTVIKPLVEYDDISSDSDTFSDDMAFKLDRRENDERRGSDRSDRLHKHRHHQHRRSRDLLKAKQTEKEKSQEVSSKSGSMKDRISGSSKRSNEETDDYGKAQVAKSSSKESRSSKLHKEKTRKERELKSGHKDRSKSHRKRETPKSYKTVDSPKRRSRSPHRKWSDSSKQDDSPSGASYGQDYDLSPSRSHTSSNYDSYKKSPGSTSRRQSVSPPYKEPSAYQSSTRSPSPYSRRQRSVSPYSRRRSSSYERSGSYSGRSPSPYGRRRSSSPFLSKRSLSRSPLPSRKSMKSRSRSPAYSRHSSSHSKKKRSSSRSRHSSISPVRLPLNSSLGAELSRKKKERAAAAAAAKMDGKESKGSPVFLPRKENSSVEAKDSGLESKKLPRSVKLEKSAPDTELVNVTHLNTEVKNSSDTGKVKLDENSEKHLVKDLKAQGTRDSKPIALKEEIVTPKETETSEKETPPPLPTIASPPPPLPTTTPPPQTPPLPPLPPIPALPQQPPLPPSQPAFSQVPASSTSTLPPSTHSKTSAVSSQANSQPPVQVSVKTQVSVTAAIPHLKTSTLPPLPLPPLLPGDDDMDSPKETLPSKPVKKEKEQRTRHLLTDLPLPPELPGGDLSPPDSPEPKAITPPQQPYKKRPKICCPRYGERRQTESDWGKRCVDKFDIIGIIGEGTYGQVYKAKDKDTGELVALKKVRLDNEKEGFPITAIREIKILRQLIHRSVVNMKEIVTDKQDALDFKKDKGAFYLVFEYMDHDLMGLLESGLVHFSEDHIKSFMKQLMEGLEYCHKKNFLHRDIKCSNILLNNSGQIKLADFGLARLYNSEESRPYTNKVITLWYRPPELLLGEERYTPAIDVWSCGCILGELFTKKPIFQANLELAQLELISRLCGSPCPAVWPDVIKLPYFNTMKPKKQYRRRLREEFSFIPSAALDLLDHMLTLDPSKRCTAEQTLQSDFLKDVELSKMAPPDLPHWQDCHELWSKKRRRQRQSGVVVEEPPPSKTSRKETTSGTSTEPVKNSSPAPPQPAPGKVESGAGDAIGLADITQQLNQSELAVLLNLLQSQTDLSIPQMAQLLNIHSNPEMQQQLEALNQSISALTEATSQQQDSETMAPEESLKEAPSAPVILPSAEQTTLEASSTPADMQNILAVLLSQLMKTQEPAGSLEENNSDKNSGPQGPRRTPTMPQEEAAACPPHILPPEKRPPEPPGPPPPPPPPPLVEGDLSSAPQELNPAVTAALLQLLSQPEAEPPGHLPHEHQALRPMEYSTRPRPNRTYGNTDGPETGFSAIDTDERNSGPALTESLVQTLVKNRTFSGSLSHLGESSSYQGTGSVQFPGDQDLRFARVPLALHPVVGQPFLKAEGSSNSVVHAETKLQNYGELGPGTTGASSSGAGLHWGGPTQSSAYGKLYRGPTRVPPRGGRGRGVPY
Sequence of CDK12/CyclinK (O75909 whole entry partner): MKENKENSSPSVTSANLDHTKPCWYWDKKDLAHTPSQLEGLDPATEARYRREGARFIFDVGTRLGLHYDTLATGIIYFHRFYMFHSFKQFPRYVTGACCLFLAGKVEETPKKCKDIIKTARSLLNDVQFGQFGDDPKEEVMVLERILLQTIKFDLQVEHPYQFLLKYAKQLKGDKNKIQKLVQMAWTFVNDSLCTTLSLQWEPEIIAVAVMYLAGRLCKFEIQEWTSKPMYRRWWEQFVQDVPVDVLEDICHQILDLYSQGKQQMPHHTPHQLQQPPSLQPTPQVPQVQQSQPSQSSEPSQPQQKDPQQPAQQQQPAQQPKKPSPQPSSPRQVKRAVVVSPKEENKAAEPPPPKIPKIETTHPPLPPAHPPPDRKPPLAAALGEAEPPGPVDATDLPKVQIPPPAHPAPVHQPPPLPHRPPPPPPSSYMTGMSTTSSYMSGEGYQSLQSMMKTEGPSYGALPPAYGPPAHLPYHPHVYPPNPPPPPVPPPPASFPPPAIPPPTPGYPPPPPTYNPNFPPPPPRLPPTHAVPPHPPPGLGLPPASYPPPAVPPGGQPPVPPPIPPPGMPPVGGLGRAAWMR
Sequence of CYP1A2 (P05177 whole entry): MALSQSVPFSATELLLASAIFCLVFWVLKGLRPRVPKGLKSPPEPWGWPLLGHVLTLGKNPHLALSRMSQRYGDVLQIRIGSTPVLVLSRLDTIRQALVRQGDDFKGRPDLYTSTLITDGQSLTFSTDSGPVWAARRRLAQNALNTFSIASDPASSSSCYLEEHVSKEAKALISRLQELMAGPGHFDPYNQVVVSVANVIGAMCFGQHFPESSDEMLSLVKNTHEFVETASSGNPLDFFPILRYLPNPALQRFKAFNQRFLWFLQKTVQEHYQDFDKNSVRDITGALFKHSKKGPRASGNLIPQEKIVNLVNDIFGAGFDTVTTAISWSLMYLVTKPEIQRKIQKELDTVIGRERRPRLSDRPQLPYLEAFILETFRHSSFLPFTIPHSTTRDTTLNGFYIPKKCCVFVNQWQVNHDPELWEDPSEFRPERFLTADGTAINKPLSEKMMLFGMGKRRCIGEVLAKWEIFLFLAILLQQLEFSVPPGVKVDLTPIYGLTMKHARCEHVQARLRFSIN
Sequence of CYP2D6 (P10635 whole entry): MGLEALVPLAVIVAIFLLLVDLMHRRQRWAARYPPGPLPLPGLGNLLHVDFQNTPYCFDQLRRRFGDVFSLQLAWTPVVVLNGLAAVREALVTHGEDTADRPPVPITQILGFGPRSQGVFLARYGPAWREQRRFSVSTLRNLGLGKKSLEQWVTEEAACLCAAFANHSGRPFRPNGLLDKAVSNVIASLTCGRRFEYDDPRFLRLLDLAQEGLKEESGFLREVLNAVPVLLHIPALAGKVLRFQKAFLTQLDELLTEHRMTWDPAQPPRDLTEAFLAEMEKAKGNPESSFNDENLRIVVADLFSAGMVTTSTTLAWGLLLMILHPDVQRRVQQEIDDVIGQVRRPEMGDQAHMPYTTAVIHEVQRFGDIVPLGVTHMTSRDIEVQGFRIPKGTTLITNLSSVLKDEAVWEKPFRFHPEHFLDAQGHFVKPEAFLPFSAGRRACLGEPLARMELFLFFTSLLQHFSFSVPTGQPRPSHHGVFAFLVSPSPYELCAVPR

As usually defined, the IC50 is the point on the concentration scale where inhibition reaches its midpoint. Lower therefore signals greater potency. The compound `CCn1cnc2c(NCc3ccc(-c4ccnc(C)c4)nc3)nc(-c3cncnc3)nc21` [Example 51, 9-ethyl-N-((2′-methyl-[2,4′-bipyridin]-5-yl)methyl)-2-(pyrimidin-5-yl)-9H-purin-6-amine] came in with an IC50 in data set [1] of 0.056 µM. Besides, the GI50 came to 0.156 µM in data set [2] (72 hours, read-out: HCC1954 (GI50/μM)) and 0.192 µM in data set [3] (72 hours, read-out: SK-Br3 (GI50/μM)). Besides, in data set [4], the “Liver microsomal metabolic stability (% remaining amount) Dog” value was found to be 79.5%. For the same compound, in [4], the “Liver microsomal metabolic stability (% remaining amount) Human” value is reported as 27.3%. In data set [4], the “Liver microsomal metabolic stability (% remaining amount) Mouse” value is 34.0%. In addition, the activity at 10 µM came out at 68.6% in data set [5]; 73.9% in [6]; 67.5% in data set [7]; 88.8% in data set [8]; 31.8% in data set [9].

`CCn1cnc2c(NCc3ccc(-c4ccccn4)nc3)nc(-c3cnc(N)nc3)nc21` [Example 54, N-([2,2′-bipyridin]-5-ylmethyl)-2-(2-aminopyrimidin-5-yl)-9-ethyl-9H-purin-6-amine]: in data set [1], the IC50 was 0.077 µM. The “Pol II CTD (Ser2) phosphorylation” value in data set [10] is given as “inhibited Pol II CTD (Ser2) phosphorylation”; in data set [10] (listed as Compound 54), “strong dose-dependent suppression of Pol II phosphorylation”. The figures for the cyclinK degradation entry in [11] and in [11] (listed as Compound 54) were “induced cyclinK degradation” and “cyclinK levels were greatly suppressed in a dose-dependent manner”, respectively. Moreover, the “expression of IRS1 and WNT1” value in [12] was “inhibited the expression of IRS1 and WNT1”; in data set [12] (listed as Compound 54), “strongly suppressed”. Besides, in [4], the “Liver microsomal metabolic stability (% remaining amount) Dog” value amounted to 67.6%. In addition, in data set [4], the “Liver microsomal metabolic stability (% remaining amount) Human” value is 100%. The “Liver microsomal metabolic stability (% remaining amount) Mouse” value in [4] came out at 85.0%. For the same compound, the activity at 10 µM came to 87.6% in [5]; 72.6% in [6]; 81.6% in data set [7]; 92.1% in data set [8]; 92.8% in data set [9].

For the compound `CCc1cnn2c(NCc3ccc[n+]([O-])c3)cc(N3CCCC[C@H]3CCO)nc12` [Dinaciclib, reference compound], the GI50 in data set [2] (read-out: HCC1954 GI50) and in [3] (read-out: SK-Br3 GI50) was 0.012 µM throughout. Besides, in data set [13], the mouse body weight entry is given as “toxicity with a decrease in body weight in mice”.
